Experiments:
[1] = molecular target: Mitogen-activated protein kinase 8 (Homo sapiens) (UniProt P45983); assay: In vitro percent inhibition of c-Jun N-terminal kinase 1-alpha 1 at 10 uM concentration of compound dissolved in 100% DMSO using 5''-[gamma-33P]-triphosphate
[2] = In vitro percent inhibition of Cyclin-dependent kinase 2-cyclin A at 10 uM concentration of compound dissolved in 100% DMSO using 5''-[gamma-33P]-triphosphate
[3] = molecular target: RAF proto-oncogene serine/threonine-protein kinase (Homo sapiens) (UniProt P04049); assay: In vitro percent inhibition of RAF proto-oncogene serine/threonine-protein kinase at 10 uM concentration of compound dissolved in 100% DMSO using 5''-[gamma-33P]-triphosphate
[4] = molecular target: Platelet-derived growth factor receptor beta (Homo sapiens) (UniProt P09619); assay: In vitro percent inhibition of Platelet-derived growth factor receptor, beta polypeptide at 10 uM concentration of compound dissolved in 100% DMSO using 5''-[gamma-33P]-triphosphate
[5] = molecular target: Mast/stem cell growth factor receptor Kit (Homo sapiens) (UniProt P10721); assay: In vitro percent inhibition of v-kit Hardy-Zuckerman 4 feline sarcoma viral oncogene homolog at 10 uM concentration of compound dissolved in 100% DMSO using 5''-[gamma-33P]-triphosphate
[6] = molecular target: Insulin receptor (Homo sapiens) (UniProt P06213); assay: In vitro percent inhibition of Insulin receptor at 10 uM concentration of compound dissolved in 100% DMSO using 5''-[gamma-33P]-triphosphate
[7] = molecular target: Hepatocyte growth factor receptor (Homo sapiens) (UniProt P08581); assay: In vitro percent inhibition of Met proto-oncogene tyrosine kinase at 10 uM concentration of compound dissolved in 100% DMSO using 5''-[gamma-33P]-triphosphate
[8] = molecular target: Mitogen-activated protein kinase 3 (Homo sapiens) (UniProt P27361); assay: In vitro percent inhibition of Mitogen-activated protein kinase 3 at 10 uM concentration of compound dissolved in 100% DMSO using 5''-[gamma-33P]-triphosphate
[9] = molecular target: Tyrosine-protein kinase Lck (Homo sapiens) (UniProt P06239); assay: In vitro percent inhibition of p56 Lck tyrosine kinase at 10 uM concentration of compound dissolved in 100% DMSO using 5''-[gamma-33P]-triphosphate
[10] = molecular target: Rho-associated protein kinase 2 (Homo sapiens) (UniProt O75116); assay: In vitro percent inhibition of Protein kinase ROCK2 at 10 uM concentration of compound dissolved in 100% DMSO using 5''-[gamma-33P]-triphosphate
[11] = molecular target: Casein kinase I isoform alpha (Homo sapiens) (UniProt P48729); assay: In vitro percent inhibition of Casein kinase 1 alpha at 10 uM concentration of compound dissolved in 100% DMSO using 5''-[gamma-33P]-triphosphate
[12] = molecular target: T1, Inhibitor of nuclear factor kappa-B kinase subunit beta (Homo sapiens) (UniProt O14920); assay: In vitro percent inhibition of I-kappa-B-kinase beta at 10 uM concentration of compound dissolved in 100% DMSO using 5''-[gamma-33P]-triphosphate
T1 sequence (whole entry): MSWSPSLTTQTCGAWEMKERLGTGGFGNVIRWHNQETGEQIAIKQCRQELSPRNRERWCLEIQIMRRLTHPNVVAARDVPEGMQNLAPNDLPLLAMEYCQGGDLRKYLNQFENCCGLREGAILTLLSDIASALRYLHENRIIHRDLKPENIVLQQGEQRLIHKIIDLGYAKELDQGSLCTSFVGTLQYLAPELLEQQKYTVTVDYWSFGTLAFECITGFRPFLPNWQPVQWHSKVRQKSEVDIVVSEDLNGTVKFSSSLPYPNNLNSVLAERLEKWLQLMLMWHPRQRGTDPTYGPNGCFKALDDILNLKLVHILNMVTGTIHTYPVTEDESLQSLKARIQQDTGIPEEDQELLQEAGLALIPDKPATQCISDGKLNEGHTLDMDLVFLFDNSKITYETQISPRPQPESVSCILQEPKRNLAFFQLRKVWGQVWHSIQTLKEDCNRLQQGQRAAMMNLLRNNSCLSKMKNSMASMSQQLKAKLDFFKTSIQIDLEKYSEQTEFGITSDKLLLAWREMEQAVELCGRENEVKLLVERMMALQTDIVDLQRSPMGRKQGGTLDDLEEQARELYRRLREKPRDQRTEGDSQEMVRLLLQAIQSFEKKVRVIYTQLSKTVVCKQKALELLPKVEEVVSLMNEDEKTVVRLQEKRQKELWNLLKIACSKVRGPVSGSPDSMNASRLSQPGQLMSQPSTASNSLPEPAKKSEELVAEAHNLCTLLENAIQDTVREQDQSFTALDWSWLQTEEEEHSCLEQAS

[13] = In vitro percent inhibition of Ribosomal S6 kinase 1 at 10 uM concentration of compound dissolved in 100% DMSO using 5''-[gamma-33P]-triphosphate
[14] = molecular target: Proto-oncogene tyrosine-protein kinase Src (Homo sapiens) (UniProt P12931); assay: In vitro percent inhibition of c-Src tyrosine kinase at 10 uM concentration of compound dissolved in 100% DMSO using 5''-[gamma-33P]-triphosphate
[15] = molecular target: T2, Tyrosine-protein kinase transforming protein Abl (Abelson murine leukemia virus) (UniProt P00521); assay: In vitro percent inhibition of v-Abl tyrosine kinase at 10 uM concentration of compound dissolved in 100% DMSO using 5''-[gamma-33P]-triphosphate
T2 sequence (whole entry): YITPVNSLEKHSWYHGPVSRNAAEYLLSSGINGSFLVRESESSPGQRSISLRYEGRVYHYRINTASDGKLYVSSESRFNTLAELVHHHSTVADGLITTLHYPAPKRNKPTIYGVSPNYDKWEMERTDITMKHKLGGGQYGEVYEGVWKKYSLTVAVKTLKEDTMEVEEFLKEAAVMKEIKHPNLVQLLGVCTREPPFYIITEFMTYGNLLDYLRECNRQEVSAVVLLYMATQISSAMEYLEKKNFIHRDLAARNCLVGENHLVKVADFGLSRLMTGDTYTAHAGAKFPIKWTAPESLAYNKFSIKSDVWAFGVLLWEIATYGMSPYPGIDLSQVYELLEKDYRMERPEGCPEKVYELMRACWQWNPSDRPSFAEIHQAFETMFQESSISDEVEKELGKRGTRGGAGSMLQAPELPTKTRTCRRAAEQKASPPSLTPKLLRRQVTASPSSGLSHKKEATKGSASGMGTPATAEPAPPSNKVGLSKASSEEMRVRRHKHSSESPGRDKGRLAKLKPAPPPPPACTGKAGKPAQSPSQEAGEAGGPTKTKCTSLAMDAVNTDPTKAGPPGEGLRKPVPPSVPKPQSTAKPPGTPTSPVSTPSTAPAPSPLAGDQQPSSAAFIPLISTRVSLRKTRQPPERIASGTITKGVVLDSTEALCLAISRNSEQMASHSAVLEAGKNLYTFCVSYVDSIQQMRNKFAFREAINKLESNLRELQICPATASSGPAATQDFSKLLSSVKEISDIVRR

[16] = Partition coefficient (logP); format: physicochemical; details: octanol/water
[17] = molecular target: Epidermal growth factor receptor (Homo sapiens) (UniProt P00533); details: 10 uM
[18] = molecular target: Ribosomal protein S6 kinase (P70S6K) (Homo sapiens) (UniProt Q9UBS0+P23443); assay: In vitro percent inhibition of Ribosomal protein S6 kinase at 10 uM concentration of compound dissolved in 100% DMSO using 5''-[gamma-33P]-triphosphate; format: protein-complex assay
[19] = molecular target: Glycogen synthase kinase-3 beta (Homo sapiens) (UniProt P49841); assay: In vitro percent inhibition of Glycogen synthase kinase 3 beta at 10 uM concentration of compound dissolved in 100% DMSO using 5''-[gamma-33P]-triphosphate
[20] = molecular target: RAC-alpha serine/threonine-protein kinase (Homo sapiens) (UniProt P31749); assay: In vitro percent inhibition of Protein kinase B, alpha at 10 uM concentration of compound dissolved in 100% DMSO using 5''-[gamma-33P]-triphosphate
[21] = system: SRPK1 (Homo sapiens); assay: In vitro inhibition of SR protein kinase 1 by compound dissolved in 100% DMSO using 5''-[gamma-33P]-triphosphate; n.a. - not active

Hepatocyte growth factor receptor (Homo sapiens), sequence (P08581 whole entry): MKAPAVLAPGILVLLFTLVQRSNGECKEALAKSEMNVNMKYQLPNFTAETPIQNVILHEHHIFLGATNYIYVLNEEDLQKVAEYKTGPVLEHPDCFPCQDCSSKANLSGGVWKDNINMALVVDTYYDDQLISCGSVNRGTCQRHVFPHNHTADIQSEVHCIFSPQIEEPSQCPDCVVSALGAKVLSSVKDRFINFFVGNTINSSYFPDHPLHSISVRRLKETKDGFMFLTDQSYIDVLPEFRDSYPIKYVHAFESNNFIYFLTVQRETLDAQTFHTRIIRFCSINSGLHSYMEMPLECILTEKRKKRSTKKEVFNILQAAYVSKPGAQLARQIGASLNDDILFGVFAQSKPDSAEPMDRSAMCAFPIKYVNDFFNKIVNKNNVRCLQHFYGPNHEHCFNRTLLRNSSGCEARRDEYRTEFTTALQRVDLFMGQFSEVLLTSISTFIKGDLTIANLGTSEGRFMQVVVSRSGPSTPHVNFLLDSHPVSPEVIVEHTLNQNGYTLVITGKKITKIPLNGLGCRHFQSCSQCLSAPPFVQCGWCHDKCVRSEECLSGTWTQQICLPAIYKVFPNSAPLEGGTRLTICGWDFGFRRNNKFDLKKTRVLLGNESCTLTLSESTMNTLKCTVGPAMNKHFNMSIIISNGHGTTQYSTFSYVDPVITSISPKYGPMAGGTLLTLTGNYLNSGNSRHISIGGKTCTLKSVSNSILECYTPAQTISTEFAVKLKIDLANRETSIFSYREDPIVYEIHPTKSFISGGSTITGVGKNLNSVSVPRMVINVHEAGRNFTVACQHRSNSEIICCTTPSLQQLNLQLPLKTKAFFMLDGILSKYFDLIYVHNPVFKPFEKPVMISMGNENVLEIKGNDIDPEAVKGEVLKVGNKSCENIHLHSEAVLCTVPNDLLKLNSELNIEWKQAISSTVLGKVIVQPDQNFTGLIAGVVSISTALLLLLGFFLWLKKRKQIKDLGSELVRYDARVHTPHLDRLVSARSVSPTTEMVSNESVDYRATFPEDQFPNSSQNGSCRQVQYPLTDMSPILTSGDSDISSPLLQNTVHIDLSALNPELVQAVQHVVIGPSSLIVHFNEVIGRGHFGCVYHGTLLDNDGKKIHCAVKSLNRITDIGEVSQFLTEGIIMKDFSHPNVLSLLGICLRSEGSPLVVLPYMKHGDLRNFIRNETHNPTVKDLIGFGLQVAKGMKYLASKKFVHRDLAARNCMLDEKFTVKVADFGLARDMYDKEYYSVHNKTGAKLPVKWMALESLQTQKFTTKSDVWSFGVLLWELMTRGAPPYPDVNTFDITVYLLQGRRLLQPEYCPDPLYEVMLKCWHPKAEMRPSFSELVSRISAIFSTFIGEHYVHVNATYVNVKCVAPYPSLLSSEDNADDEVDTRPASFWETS
Proto-oncogene tyrosine-protein kinase Src (Homo sapiens), sequence (P12931 2-536 limits assumed): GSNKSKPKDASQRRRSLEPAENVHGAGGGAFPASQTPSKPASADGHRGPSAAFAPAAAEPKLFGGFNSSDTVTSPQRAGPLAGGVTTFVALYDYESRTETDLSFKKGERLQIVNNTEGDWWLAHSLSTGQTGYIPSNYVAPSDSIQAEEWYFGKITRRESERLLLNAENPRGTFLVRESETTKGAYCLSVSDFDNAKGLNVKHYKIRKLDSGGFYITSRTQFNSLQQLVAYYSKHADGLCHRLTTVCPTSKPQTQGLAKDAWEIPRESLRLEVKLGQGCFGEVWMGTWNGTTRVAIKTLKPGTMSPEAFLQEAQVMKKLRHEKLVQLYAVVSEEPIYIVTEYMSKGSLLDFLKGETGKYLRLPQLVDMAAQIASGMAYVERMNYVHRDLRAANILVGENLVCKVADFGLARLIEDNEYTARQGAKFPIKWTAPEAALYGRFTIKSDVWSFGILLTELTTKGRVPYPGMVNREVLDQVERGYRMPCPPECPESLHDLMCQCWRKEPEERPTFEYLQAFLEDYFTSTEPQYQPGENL
Platelet-derived growth factor receptor beta (Homo sapiens), sequence (P09619 whole entry): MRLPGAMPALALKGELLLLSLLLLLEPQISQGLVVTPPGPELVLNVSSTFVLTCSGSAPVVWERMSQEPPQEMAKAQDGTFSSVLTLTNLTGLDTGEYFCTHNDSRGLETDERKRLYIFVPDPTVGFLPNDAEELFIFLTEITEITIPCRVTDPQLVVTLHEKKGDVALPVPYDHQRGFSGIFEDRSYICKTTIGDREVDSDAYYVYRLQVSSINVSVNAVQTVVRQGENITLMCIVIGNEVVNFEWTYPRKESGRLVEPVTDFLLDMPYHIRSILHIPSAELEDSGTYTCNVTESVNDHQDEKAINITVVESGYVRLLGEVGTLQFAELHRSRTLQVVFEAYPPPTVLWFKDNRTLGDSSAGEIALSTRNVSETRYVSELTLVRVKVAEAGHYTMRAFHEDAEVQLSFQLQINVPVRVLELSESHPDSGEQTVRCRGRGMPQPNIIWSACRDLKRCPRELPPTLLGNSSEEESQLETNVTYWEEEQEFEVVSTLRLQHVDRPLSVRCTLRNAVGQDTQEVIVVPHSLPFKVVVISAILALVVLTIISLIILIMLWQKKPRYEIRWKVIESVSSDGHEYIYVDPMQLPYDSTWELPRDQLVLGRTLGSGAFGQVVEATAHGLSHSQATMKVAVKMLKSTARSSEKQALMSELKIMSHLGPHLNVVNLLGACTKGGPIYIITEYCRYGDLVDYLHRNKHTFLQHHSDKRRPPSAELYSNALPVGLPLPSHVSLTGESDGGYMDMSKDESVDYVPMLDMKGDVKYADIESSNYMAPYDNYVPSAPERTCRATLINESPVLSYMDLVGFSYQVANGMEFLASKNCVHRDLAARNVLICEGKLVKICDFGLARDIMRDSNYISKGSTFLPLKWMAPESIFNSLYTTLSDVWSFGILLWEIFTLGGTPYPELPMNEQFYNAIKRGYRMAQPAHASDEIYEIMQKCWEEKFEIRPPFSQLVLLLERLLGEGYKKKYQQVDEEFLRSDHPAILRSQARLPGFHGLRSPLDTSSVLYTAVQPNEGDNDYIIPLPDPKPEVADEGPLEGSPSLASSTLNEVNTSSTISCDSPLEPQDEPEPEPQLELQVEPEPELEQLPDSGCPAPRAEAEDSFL
RAF proto-oncogene serine/threonine-protein kinase (Homo sapiens), sequence (P04049 whole entry): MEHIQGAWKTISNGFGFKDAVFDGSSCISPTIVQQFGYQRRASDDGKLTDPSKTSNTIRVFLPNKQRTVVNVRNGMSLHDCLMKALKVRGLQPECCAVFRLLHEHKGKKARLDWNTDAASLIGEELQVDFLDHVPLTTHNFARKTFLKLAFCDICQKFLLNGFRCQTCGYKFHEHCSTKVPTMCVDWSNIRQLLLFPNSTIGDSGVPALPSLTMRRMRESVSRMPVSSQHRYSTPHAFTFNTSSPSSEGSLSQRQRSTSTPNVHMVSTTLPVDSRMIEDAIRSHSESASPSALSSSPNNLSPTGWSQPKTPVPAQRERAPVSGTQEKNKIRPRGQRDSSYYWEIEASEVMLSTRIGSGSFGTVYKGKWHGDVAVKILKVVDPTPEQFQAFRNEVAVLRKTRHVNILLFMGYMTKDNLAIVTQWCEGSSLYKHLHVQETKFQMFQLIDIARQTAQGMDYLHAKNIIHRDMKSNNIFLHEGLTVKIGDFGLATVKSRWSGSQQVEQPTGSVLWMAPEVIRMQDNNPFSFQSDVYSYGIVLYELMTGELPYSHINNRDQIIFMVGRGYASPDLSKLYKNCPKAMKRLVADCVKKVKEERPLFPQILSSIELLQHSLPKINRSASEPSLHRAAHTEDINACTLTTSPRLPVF
Mitogen-activated protein kinase 8 (Homo sapiens), sequence (P45983 whole entry): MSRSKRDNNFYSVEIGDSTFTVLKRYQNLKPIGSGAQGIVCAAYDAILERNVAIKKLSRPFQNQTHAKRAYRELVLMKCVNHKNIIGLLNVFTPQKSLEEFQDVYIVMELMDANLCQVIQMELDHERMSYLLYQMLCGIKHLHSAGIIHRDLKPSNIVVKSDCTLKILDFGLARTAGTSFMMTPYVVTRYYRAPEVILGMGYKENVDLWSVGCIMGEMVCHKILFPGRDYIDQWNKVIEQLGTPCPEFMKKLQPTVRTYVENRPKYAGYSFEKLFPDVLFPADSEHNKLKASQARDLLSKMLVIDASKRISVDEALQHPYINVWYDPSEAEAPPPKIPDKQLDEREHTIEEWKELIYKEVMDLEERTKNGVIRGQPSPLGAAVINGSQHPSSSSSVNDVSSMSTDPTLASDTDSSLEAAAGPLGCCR
Mast/stem cell growth factor receptor Kit (Homo sapiens), sequence (P10721 whole entry): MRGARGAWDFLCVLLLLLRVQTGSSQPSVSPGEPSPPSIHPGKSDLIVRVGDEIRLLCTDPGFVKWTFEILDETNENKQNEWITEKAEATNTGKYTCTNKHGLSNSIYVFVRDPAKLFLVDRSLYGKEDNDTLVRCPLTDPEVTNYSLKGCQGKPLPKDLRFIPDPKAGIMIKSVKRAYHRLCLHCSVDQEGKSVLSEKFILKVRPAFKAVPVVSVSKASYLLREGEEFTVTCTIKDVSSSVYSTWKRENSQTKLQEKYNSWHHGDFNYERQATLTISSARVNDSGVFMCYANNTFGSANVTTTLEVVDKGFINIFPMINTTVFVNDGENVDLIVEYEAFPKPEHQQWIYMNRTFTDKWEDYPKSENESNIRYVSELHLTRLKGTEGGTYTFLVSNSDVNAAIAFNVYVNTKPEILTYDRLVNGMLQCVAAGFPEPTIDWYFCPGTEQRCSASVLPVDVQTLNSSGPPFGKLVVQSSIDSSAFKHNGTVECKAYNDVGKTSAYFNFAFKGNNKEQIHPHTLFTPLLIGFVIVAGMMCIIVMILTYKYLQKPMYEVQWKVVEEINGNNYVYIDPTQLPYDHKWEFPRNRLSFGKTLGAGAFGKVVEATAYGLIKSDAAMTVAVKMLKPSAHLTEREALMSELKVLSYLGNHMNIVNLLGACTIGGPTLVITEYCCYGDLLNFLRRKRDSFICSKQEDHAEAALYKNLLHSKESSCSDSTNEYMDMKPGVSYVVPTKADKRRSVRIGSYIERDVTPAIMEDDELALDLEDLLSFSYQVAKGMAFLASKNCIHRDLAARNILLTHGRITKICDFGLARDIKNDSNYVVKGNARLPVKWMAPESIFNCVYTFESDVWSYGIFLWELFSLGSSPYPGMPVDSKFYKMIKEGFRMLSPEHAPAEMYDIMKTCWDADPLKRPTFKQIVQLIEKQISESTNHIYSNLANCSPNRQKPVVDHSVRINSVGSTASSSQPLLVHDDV

Row | inhibition [1] | inhibition [2] | inhibition [3] | inhibition [4] | inhibition [5] | inhibition [6] | inhibition [7] | inhibition [8] | inhibition [9] | inhibition [10] | inhibition [11] | inhibition [12] | inhibition [13] | inhibition [14] | inhibition [15] | logP [16] | inhibition [17] | inhibition [18] | inhibition [19] | inhibition [20] | SMILES | other results
1 | 24% | 1% | 4% | 61% | 46% | 48% | 42% | 31% | 53% | 41% | 8% | 38% | 19% | 84% | 11% | 5 | 34% |  |  |  | c1csc(-c2nc3cc4c(cc3nc2-c2cccs2)OCCO4)c1 | 
2 | 6% | 3% | 16% | 15% | 8% | 55% | 43% | 11% |  | 19% | 7% | 6% | 6% | 20% | 4% | 5.98 | 6% | 8% | 6% | 12% | c1csc(-c2nc3cc4ccccc4cc3nc2-c2cccs2)c1 | 
3 | -5% | -4% | 18% | 49% | 52% | -5% | 32% | 11% | -3% | 18% | 40% | 54% | 30% | 70% | 3% | 4.28 | 40% | 29% | 23% | 0% | O=C(O)CCc1ccc(-c2nc3cc4ccccc4cc3nc2-c2ccc(CCC(=O)O)s2)s1 | 
4 | 20% |  | 6% | 68% | 56% | 42% | 49% | 18% | 47% | 15% | 10% | 42% | 3% | 83% | 11% | 5.4 | 40% | 5% | 4% | -10% | O=C(O)c1ccc2cc3nc(-c4cccs4)c(-c4cccs4)nc3cc2c1 | 
5 | -3% | 8% | 39% | 10% | 15% | 5% | 27% | 52% | -9% | 5% | -2% | 25% | 23% | 14% | 10% | 3.3 | 52% | 17% | 47% | 15% | O=C(O)Cc1ccc(-c2nc3cc4ccccc4cc3nc2-c2ccc(CC(=O)O)s2)s1 | 
6 | 18% | -4% | 21% | 54% | 38% | 29% | 34% | 14% | 41% | 31% | 9% | 28% | 1% | 71% | 14% | 4.8 | 35% | 6% | -1% | -6% | c1csc(-c2nc3cc4c(cc3nc2-c2cccs2)OCO4)c1 | 
7 | -3% | 7% | 3% |  | -7% | -4% | 0% | 25% | 1% |  | 9% | 3% | 6% | -3% | 1% | 4.2 | 25% | -8% | 5% | -7% | Oc1cc2nc(-c3cccs3)c(-c3cccs3)nc2cc1O | 
8 | 9% | 25% | 42% | 47% | 5% |  | 12% | 8% | 2% | 5% | 30% | 16% | 38% |  | 15% | 5.5 | 8% | -7% | 24% | -6% | COC(=O)CCCc1ccc(-c2nc3cc4ccccc4cc3nc2-c2ccc(CCCC(=O)OC)s2)s1 | IC50 [21]: Not Active

Source: ChEMBL document CHEMBL1140238, “Synthesis of selective SRPK-1 inhibitors: novel tricyclic quinoxaline derivatives” (Bioorg Med Chem Lett, 2005)
